The target in one experiment is T1, CDK6 (Homo sapiens, UniProt Q00534).
T1 construct: purchased ThermoFisher (Waltham, Mass.)
Briefly: Lance TR-FRET kinase assay, CDK6. The class given is biochemical. On the procedure:
(§1) Time Resolved-Fluorescent Resonance Energy Transfer (TR-FRET) was used to determine inhibitory ability of compounds A1˜A19, B1s and B1˜B12 against the enzymatic activity of CDK1, CDK2, CDK4, CDK5, CDK6, CDK7, and CDK9.
(§2) Inhibitory activity of compounds against CDK1/2/4/5/6/7 was assessed using Lance TR-FRET assay kits from Perkin Elmer Life Sciences (Waltham, Mass.). CDK1/2/4/5/6/7 enzymes were purchased from ThermoFisher (Waltham, Mass.). 2.5 μL of compound solutions and 2.5 μL of enzyme solutions in kinase assay buffer, which was 50 mM HEPES (pH 7.5) with 1 mM EGTA, 1 mM MgCl2, 2 mM DTT, and 0.01% Tween-20, were added into a white OptiPlate-384 plate followed by adding 5 μL of fluorescently labeled peptide substrates (Ulight-4E-BP1 for CDK4/6 and Ulight-MBP for CDK1/2/7/9) and ATP mixture solutions. Final concentrations of substrates and DMSO were 100 nM and 0.5%, respectively. Concentrations of ATP and different CDK enzymes were adjusted accordingly to achieve optimal enzymatic activities. Final CDK concentrations were 100, 500, 600, 100, 50, and 200 ng/well and ATP concentrations were 30, 50, 100, 20, 100, and 50 μM for CDK1/2/4/5/6/7, respectively. Assay plates were covered to protect from light and spun for 1 min at 700 RPM. Reactions were allowed to perform for 60 minutes in dark with gentle shaking at room temperature after which 5 μL of 40 mM EDTA in detection buffer was added to stop reactions followed 5 μL of the Eu labeled antibodies giving final concentrations of 2 nM to detect the phosphorylation of the peptide substrates. Assay plates were read with the EnVision™ Multilabel Reader in TR-FRET mode (excitation at 320 nm and emission at 665 nm). The percent of inhibition was calculated from the means of data points using the formula: 100−(Signalcompound−NoSignalbackground)*100/(Signalvehicle−NoSignalbackground). The IC50s were determined with GraphPad Prism by the non-linear sigmoidal curve fitting of data from 10 doses.
In general terms: Time-resolved FRET reads energy transfer from a long-lived donor to a nearby acceptor.

The next experiment concerns the target T2, CDK4 (Homo sapiens, UniProt P11802).
T2 construct: purchased ThermoFisher (Waltham, Mass.)
Put plainly: Lance TR-FRET kinase assay, CDK4. The format is biochemical. The following applies: ATP 100 μM, 60 min, read-out: CDK 4 inhibitory activity (IC50). The protocol: as §2, with “2.5 μL of compound solutions and 2.5 μL of enzyme solutions in kinase assay buffer, which was 50 mM HEPES (pH 7.5) with 1 mM EGTA, 1 mM MgCl2, 2 mM DTT, and 0.01% Tween-20, were added into a white OptiPlate-384 plate followed by adding 5 μL of fluorescently labeled peptide substrates (Ulight-4E-BP1 for CDK4/6 and Ulight-MBP for CDK1/2/7/9) and ATP mixture solutions.” left out, “Assay plates were read with the EnVision™ Multilabel Reader in TR-FRET mode (excitation at 320 nm and emission at 665 nm).” left out

The target in another experiment is T3, CDK2 (Homo sapiens, UniProt P24941).
T3 construct: purchased ThermoFisher (Waltham, Mass.)
Put plainly: Lance TR-FRET kinase assay, CDK2. The class given is biochemical. The following applies: ATP 50 μM, 60 min, read-out: CDK 2 inhibitory activity (IC50). On the procedure:
as §1, §2

The target in another experiment is T4, CDK1 (Homo sapiens, UniProt P06493).
T4 construct: purchased ThermoFisher (Waltham, Mass.)
T4 sequence (P06493 whole entry): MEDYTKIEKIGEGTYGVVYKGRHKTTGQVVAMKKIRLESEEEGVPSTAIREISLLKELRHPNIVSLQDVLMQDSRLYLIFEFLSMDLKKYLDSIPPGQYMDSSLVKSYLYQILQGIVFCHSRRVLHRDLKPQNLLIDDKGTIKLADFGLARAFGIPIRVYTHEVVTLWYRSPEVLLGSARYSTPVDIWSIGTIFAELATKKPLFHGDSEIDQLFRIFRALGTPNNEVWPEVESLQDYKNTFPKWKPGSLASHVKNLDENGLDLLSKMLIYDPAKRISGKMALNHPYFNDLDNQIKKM
T4 sequence (P14635 whole entry partner): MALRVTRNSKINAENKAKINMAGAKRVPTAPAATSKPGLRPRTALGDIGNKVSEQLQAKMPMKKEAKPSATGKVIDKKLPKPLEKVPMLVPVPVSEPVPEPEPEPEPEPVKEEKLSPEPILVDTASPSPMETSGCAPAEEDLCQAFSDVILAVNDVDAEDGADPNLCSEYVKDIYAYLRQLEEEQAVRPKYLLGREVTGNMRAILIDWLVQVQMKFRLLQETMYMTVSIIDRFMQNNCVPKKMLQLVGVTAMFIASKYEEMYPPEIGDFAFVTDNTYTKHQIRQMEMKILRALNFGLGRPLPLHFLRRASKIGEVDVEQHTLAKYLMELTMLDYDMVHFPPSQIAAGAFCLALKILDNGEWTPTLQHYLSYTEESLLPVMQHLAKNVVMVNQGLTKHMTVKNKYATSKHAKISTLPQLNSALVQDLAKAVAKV
Put plainly: Lance TR-FRET kinase assay, CDK1. The following applies: ATP 30 μM, 60 min, read-out: CDK 1 inhibitory activity (IC50). The format is biochemical. On the procedure: as §1, §2

A further experiment deals with T5, CDK9/cyclin T1 (Homo sapiens, UniProt P50750).
T5 construct: purchased ThermoFisher (Waltham, Mass.)
T5 sequence (P50750 whole entry): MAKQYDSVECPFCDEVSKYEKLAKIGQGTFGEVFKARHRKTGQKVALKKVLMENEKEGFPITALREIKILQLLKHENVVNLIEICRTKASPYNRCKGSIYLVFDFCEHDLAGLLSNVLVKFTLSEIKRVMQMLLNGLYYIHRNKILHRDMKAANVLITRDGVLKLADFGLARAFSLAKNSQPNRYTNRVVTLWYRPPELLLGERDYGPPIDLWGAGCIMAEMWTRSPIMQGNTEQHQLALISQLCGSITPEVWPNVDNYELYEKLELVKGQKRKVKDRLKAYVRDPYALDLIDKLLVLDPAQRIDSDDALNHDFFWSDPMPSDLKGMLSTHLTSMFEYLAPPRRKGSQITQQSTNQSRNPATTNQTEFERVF
T5 sequence (O60563 whole entry partner): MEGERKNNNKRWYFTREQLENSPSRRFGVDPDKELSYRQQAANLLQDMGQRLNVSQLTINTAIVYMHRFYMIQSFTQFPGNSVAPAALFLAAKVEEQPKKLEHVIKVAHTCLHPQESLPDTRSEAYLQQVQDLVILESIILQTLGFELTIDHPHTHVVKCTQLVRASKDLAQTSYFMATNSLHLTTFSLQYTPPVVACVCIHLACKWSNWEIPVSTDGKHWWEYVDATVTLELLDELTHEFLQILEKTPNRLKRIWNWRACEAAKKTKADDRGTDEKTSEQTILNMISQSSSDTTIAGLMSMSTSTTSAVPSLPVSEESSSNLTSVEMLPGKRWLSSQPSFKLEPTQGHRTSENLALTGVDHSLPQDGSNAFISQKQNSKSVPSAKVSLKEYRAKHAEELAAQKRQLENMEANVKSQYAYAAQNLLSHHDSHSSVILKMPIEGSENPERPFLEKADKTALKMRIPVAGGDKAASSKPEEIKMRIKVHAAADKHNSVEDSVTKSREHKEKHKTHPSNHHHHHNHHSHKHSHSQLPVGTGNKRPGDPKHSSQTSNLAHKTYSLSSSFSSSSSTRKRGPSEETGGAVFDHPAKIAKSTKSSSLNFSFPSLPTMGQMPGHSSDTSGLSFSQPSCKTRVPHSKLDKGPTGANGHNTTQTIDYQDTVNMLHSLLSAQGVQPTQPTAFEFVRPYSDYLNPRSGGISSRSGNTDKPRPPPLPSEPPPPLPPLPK
Put plainly: LanthaScreen Eu kinase binding assay, CDK9. The following applies: tracer 236 displacement, CDK9/cyclin T1 5 nM, 1 hour; read-out: CDK 9 inhibitory activity (IC50). On the procedure:
as §1
The CDK9 kinase inhibitory activity of compounds was tested in the LanthaScreen Eu kinase binding assay from ThermoFisher. LanthaScreen® Eu Kinase binding assays are based on the binding and displacement of a proprietary, Alexa Fluor® 647-labeled, ATP-competitive kinase inhibitor scaffold (kinase tracer) to CDK9. CDK9/cyclin T1, Kinase tracer 236 and LanthaScreen® Eu-anti-His Antibody were purchased form ThermoFisher (Waltham, Mass.). 5 μL of CDK9/cyclin T1 (final 5 nM)/antibody (final 2 nM) mixture, 5 μL of compound in kinase buffer, and 5 μL of tracer (final 30 nM) were added to wells of a white OptiPlate-384 plate in this specific order. Assay plates were covered to protect from light, spun for 1 min at 700 RPM and incubated at room temperature for 1 hour. Assay plates were read with the EnVision™ Multilabel Reader in TR-FRET mode (excitation at 320 nm and emission at 665 nm). The percent of inhibition was calculated from the means of data points using the formula: 100−(Signalcompound−NoSignalbackgound)*100/(Signalvehicle−NoSignalbackground). The IC50s were determined with GraphPad Prism by the non-linear sigmoidal curve fitting of data from 10 doses.

T2 sequence (P11802 whole entry): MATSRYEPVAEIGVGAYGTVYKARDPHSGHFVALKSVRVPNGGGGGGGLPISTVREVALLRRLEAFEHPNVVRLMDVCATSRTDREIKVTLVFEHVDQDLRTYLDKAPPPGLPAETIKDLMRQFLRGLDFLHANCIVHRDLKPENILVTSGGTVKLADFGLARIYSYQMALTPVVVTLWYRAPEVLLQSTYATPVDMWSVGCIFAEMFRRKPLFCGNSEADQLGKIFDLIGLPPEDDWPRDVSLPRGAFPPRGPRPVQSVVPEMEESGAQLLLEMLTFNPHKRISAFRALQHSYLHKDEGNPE
T2 sequence (P24385 whole entry partner): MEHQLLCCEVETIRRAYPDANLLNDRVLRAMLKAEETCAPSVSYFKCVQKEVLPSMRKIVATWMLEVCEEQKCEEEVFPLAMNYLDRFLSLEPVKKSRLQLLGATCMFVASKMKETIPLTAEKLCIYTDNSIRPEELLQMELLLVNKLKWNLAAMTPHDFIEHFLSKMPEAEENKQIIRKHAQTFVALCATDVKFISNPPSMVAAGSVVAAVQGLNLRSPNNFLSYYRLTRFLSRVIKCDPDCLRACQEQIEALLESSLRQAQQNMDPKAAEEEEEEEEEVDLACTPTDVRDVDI
T1 sequence (Q00534 whole entry): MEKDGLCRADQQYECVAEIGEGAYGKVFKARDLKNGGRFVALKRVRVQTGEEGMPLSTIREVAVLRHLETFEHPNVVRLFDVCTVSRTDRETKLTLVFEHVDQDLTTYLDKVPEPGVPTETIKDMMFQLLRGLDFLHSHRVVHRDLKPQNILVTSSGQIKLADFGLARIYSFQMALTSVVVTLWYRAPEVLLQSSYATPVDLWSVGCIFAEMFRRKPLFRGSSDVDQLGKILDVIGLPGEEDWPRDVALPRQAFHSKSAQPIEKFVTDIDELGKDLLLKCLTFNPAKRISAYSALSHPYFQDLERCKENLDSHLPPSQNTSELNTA
T1 sequence (P24385 whole entry partner): as the sequence (P24385 whole entry partner) above

In general, IC50 refers to the concentration that gives 50% inhibition. As for `CC1(C)CN(C(=O)c2sc3cnc(Nc4ccc(N5CCNCC5)cn4)cc3c2C2CCCC2)C1` [Compound A18, (3-cyclopentyl-5-((5-(piperazin-1-yl)pyridin-2-yl)amino)thieno[2,3-c]pyridin-2-yl)(3,3-dimethylazetidin-1-yl)methanone], the IC50 against CDK6 turned out to be 262 nM; on CDK4, 60 nM.
With `CN(C)C(=O)c1sc2cnc(Nc3ccc(N4CCNCC4)cn3)cc2c1C1=CCCC1` [Compound A2, 3-(cyclopent-1-en-1-yl)-N,N-dimethyl-5-((5-(piperazin-1-yl)pyridin-2-yl)amino)thieno[2,3-c]pyridine-2-carboxamide], the results for the IC50 on CDK6 and on CDK4 were 2.3 nM and 5 nM, respectively.
For `O=C(c1sc2cnc(Nc3ccc(N4CCNCC4)cn3)cc2c1C1CCCC1)N1CCCC1` [Compound A17, (3-cyclopentyl-5-((5-(piperazin-1-yl)pyridin-2-yl)amino)thieno[2,3-c]pyridin-2-yl)(pyrrolidin-1-yl)methanone], in that order: 20 nM and 12 nM.
Turning to `COC1(c2c(C(=O)N(C)C)sc3cnc(Nc4ccc(N5CCNCC5)cn4)cc23)CCCC1` [Compound A6, 3-(1-methoxycyclopentyl)-N,N-dimethyl-5-((5-(piperazin-1-yl)pyridin-2-yl)amino)thieno[2,3-c]pyridine-2-carboxamide], the 50% inhibitory concentration (IC50) against CDK6 stood at 2.1 nM; on CDK4, 3.7 nM; on CDK2 it was 124 nM; at CDK1, 501 nM; at CDK9/cyclin T1 it was 5.2 nM.
`N#CC1CN(C(=O)c2sc3cnc(Nc4ccc(N5CCNCC5)cn4)cc3c2C2CCCC2)C1` [Compound A9, 1-(3-cyclopentyl-5-((5-(piperazin-1-yl)pyridin-2-yl)amino)thieno[2,3-c]pyridine-2-carbonyl) azetidine-3-carbonitrile]: the IC50 on CDK6 turned out to be 3.3 nM; on CDK4, 5.3 nM.
Turning to `CN(C)C(=O)c1sc2cnc(Nc3ccc(N4CCNCC4)cn3)cc2c1C1CC1` [Compound A16, 3-cyclopropyl-N,N-dimethyl-5-((5-(piperazin-1-yl)pyridin-2-yl)amino)thieno[2,3-c]pyridine-2-carboxamide], the figures for the concentration for half-maximal inhibition (IC50) on CDK6, on CDK4 and on CDK9/cyclin T1 were 21 nM, 32.1 nM and 24 nM, respectively.
Turning to `CN(C)C(=O)c1sc2cnc(Nc3ccc(N4CCNCC4)cn3)cc2c1C1CCC1` [Compound A4, 3-cyclobutyl-N,N-dimethyl-5-((5-(piperazin-1-yl)pyridin-2-yl)amino)thieno[2,3-c]pyridine-2-carboxamide], the IC50 against CDK6 stood at 2.1 nM; on CDK4, 4.6 nM.
Take `CN(C)C(=O)c1sc2cnc(Nc3cccc(N4CCNCC4)c3)cc2c1C1CCCC1` [Compound A11, 3-cyclopentyl-N,N-dimethyl-5-((3-(piperazin-1-yl)phenyl)amino)thieno[2,3-c]pyridine-2-carboxamide]: the results for the IC50 on CDK6, on CDK4 and on CDK9/cyclin T1 were 50 nM, 160 nM and 58 nM, respectively.
With `Cc1c(C(=O)N(C)C)sc2cnc(Nc3ccc(N4CCNCC4)cn3)cc12` [Compound A3, N,N,3-trimethyl-5-((5-(piperazin-1-yl)pyridin-2-yl)amino)thieno[2,3-c]pyridine-2-carboxamide], the IC50 worked out at 174 nM against CDK6, 413 nM at CDK4 and 420 nM on CDK9/cyclin T1.
Turning to `CN(C)C(=O)c1sc2cnc(Nc3ccc(N4CCNCC4)cn3)cc2c1C1CCC(F)(F)C1` (centres unmarked) [Compound A12, 3-(3,3-difluorocyclopentyl)-N,N-dimethyl-5-((5-(piperazin-1-yl)pyridin-2-yl)amino)thieno[2,3-c]pyridine-2-carboxamide], the concentration for half-maximal inhibition (IC50) is 20 nM against CDK6, 29 nM at CDK4, 1110 nM on CDK2 and 3680 nM on CDK1.
Regarding `CN(C)C(=O)c1sc2cnc(Nc3ccc(N4CCNCC4)cn3)cc2c1C1CCOC1` (centres unmarked) [Compound A13, N,N-dimethyl-5-((5-(piperazin-1-yl)pyridin-2-yl)amino)-3-(tetrahydrofuran-3-yl)thieno[2,3-c]pyridine-2-carboxamide], the IC50 on CDK6 stood at 25 nM; at CDK4 it was 34 nM.
The matching figures for `CC(C)c1c(C(=O)N(C)C)sc2cnc(Nc3ccc(N4CCNCC4)cn3)cc12` [Compound A15, 3-isopropyl-N,N-dimethyl-5-((5-(piperazin-1-yl)pyridin-2-yl)amino)thieno[2,3-c]pyridine-2-carboxamide]: 10.7 nM and 20.5 nM.
Regarding `O=C(c1sc2cnc(Nc3ccc(N4CCNCC4)cn3)cc2c1C1CCCC1)N1CC(O)C1` [Compound A19, (3-cyclopentyl-5-((5-(piperazin-1-yl)pyridin-2-yl)amino)thieno[2,3-c]pyridin-2-yl)(3-hydroxyazetidin-1-yl)methanone], the IC50 at CDK6 came to 18 nM; on CDK4 it was 22 nM.
As for `O=C(c1sc2cnc(Nc3ccc(N4CCNCC4)cn3)cc2c1C1CCCC1)N1CCC1` [Compound A8, azetidin-1-yl(3-cyclopentyl-5-((5-(piperazin-1-yl)pyridin-2-yl)amino)thieno[2,3-c]pyridin-2-yl)methanone], the IC50 amounted to 84 nM on CDK6, 31 nM on CDK4 and 552 nM on CDK9/cyclin T1.
Regarding `CN(C)C(=O)c1sc2cnc(Nc3ccc(N4CCN(C(=O)C(O)CO)CC4)cn3)cc2c1C1CCCC1` (centres unmarked) [Compound A14, 3-cyclopentyl-5-((5-(4-(2,3-dihydroxypropanoyl)piperazin-1-yl)pyridin-2-yl)amino)-N,N-dimethylthieno[2,3-c]pyridine-2-carboxamide], the concentration for half-maximal inhibition (IC50) against CDK6 was 2.1 nM; at CDK4 it was 2.9 nM; at CDK2, 67.7 nM; on CDK1 it was 273 nM; at CDK9/cyclin T1, 4.2 nM.
As for `CN(C)C(=O)c1sc2cnc(Nc3cccc(N4CCOCC4)c3)cc2c1C1CCCC1` [Compound A10, 3-cyclopentyl-N,N-dimethyl-5-((3-morpholinophenyl)amino)thieno[2,3-c]pyridine-2-carboxamide], the results for the IC50 against CDK6, at CDK4 and at CDK9/cyclin T1 were 168 nM, 262 nM and 106 nM, respectively.
For `CN(C)C(=O)c1sc2cnc(Nc3ccc(N4CCNCC4)cn3)cc2c1C1CC2CC2C1` (centres unmarked) [Compound A7, 3-(bicyclo[3.1.0]hexan-3-yl)-N,N-dimethyl-5-((5-(piperazin-1-yl)pyridin-2-yl)amino)thieno[2,3-c]pyridine-2-carboxamide], the IC50 on CDK6 was 6.4 nM; on CDK4, 4.7 nM.

Values taken from patent US20170152269A1, “FUSED BICYCLIC COMPOUNDS AND THEIR USE AS CDK INHIBITORS” (priority 2016, published 2017).
